One series deals with Puccinia triticina. Nature of the series: Wheat brown rust (PUCCRT) disease control on wheat seedlings. The format is in vivo. Particulars: read-out: PUCCRT disease control rating (% Control); for pest or weed control at 121.5 g/ha: 121.5 g/H, low volume (track spray) application; for pest or weed control at 100 ppm: high volume application.
The subject of a further series is Septoria tritici. Briefly: Leaf blotch of wheat (SEPTTR) disease control on wheat seedlings. The format is in vivo, Mycosphaerella graminicola (anamorph Septoria tritici). Particulars: Zymoseptoria tritici, read-out: SEPTTR disease control rating (% Control); for pest or weed control at 121.5 g/ha: 121.5 g/H, low volume (track spray) application; for pest or weed control at 100 ppm: high volume application. The protocol:
Evaluation of Fungicidal Activity: Leaf Blotch of Wheat (Mycosphaerella graminicola; Anamorph: Septoria tritici; Bayer Code […]) Technical grades of materials were dissolved in acetone, which were then mixed with nine volumes of water containing 110 ppm Triton X-100. The fungicide solutions were applied onto wheat seedlings using an automated booth sprayer to run-off. All sprayed plants were allowed to air dry prior to further handling. All fungicides were evaluated using the aforementioned method for their activity vs. all target diseases. Wheat leaf blotch and brown rust activity were also evaluated using track spray applications, in which case the fungicides were formulated as EC formulations, containing 0.1% Trycol 5941 in the spray solutions. Wheat plants (variety Yuma) were grown from seed in a greenhouse in 50% mineral soil/50% soil-less Metro mix until the first leaf was fully emerged, with 7-10 seedlings per pot. These plants were inoculated with an aqueous spore suspension of Septoria tritici either prior to or after fungicide treatments. After inoculation the plants were kept in 100% relative humidity (one day in a dark dew chamber followed by two to three days in a lighted dew chamber at 20° C.) to permit spores to germinate and infect the leaf. The plants were then transferred to a greenhouse set at 20° C. for disease to develop. When disease symptoms were fully expressed on the 1st leaves of untreated plants, infection levels were assessed on a scale of 0 to 100 percent disease severity. Percent disease control was calculated using the ratio of disease severity on treated plants relative to untreated plants.

Structures are written as SMILES. Where two headings read alike, the source gives them in different places. Where only a bound is given, the exact number is not on record here.

In turn, `COc1ccnc(C(=O)N[C@H]2COC[C@H](Oc3ccccc3)[C@@H](CCC(C)C)[C@H](C)OC2=O)c1OCOC(C)=O` [Compound 32] yielded a melting point of 44 to 50 °C. The pest or weed control at 121.5 g/ha with Puccinia triticina (24 h, 1DP (1 Day Protectant)) was above 70%. The pest or weed control at 121.5 g/ha in the series on Puccinia triticina (72 h, 3DC (3 Day Curative)) was above 70%. Besides, in the series on Septoria tritici (24 h, 1DP (1 Day Protectant)), the pest or weed control at 121.5 g/ha was above 70%. For the same compound, in the series with Septoria tritici (72 h, 3DC (3 Day Curative)), the pest or weed control at 121.5 g/ha was above 70%.

For `CCCO[C@H]1COC[C@H](NC(=O)OC(C)(C)C)C(=O)O[C@@H](C)[C@@H]1CCC(C)C` [Compound 39, tert-butyl ((3S,7R,8S,9S)-8-isopentyl-9-methyl-2-oxo-7-propoxy-1,5-dioxonan-3-yl)carbamate], the melting point fell in the range of 74 to 77 °C.

Compound `CC(C)CC[C@H]1[C@H](C)OC(=O)[C@@H](NC(=O)OC(C)(C)C)COC[C@@H]1OCc1ccccc1` [Compound 42] came in with a melting point of 70 to 72 °C.

Take `COc1ccnc(C(=O)N[C@H]2COC[C@H](OCc3ccccc3)[C@@H](CCC(C)C)[C@H](C)OC2=O)c1O` [Compound 46]: the melting point was 104 to 106 °C. In addition, the pest or weed control at 100 ppm with Puccinia triticina (24 h, 1DP (1 Day Protectant)) is above 70%. The pest or weed control at 100 ppm in the series with Puccinia triticina (72 h, 3DC (3 Day Curative)) is above 70%. Also, the pest or weed control at 100 ppm with Septoria tritici (24 h, 1DP (1 Day Protectant)) was above 70%. The pest or weed control at 100 ppm in the series with Septoria tritici (72 h, 3DC (3 Day Curative)) was below 70%.

Take `CC(C)CC[C@H]1[C@H](C)OC(=O)[C@@H](NC(=O)OC(C)(C)C)COC[C@@H]1OC(=O)C1CC1` [Compound 49, (3S,7R,8S,9S)-3-((tert-butoxycarbonyl)amino)-8-isopentyl-9-methyl-2-oxo-1,5-dioxonan-7-yl cyclopropanecarboxylate]: the melting point is 92 to 95 °C.

For `CCCO[C@H]1COC[C@H](NC(=O)c2nccc(OC)c2OCOC(C)=O)C(=O)O[C@@H](C)[C@@H]1Cc1ccc(F)cc1` [Compound 62], the pest or weed control at 121.5 g/ha in the series with Puccinia triticina (24 h, 1DP (1 Day Protectant)) was above 70%; in the series with Puccinia triticina (72 h, 3DC (3 Day Curative)) it was above 70%; in the series with Septoria tritici (24 h, 1DP (1 Day Protectant)) it was above 70%; with Septoria tritici (72 h, 3DC (3 Day Curative)), above 70%.

For the compound `COc1ccnc(C(=O)N[C@H]2COC[C@H](Oc3ccc(C)cc3)[C@@H](Cc3ccc(F)cc3)[C@H](C)OC2=O)c1OCOC(C)=O` [Compound 64], the pest or weed control at 121.5 g/ha in the series with Puccinia triticina (24 h, 1DP (1 Day Protectant)) is above 70%; in the series on Puccinia triticina (72 h, 3DC (3 Day Curative)), below 70%; in the series with Septoria tritici (24 h, 1DP (1 Day Protectant)), above 70%; in the series with Septoria tritici (72 h, 3DC (3 Day Curative)), above 70%.

With `CCCC[C@H]1[C@H](C)OC(=O)[C@@H](NC(=O)c2nccc(OC)c2O)COC[C@@H]1OCCCC(F)(F)F` [Compound 65], the pest or weed control at 100 ppm in the series with Puccinia triticina (24 h, 1DP (1 Day Protectant)) is above 70%; with Puccinia triticina (72 h, 3DC (3 Day Curative)) it was below 70%; in the series on Septoria tritici (24 h, 1DP (1 Day Protectant)) it was above 70%; in the series on Septoria tritici (72 h, 3DC (3 Day Curative)), above 70%.

`CC(C)CC[C@H]1[C@H](C)OC(=O)[C@@H](NC(=O)OC(C)(C)C)COC[C@@H]1O` [Compound 66, tert-butyl ((3S,7R,8R,9S)-7-hydroxy-8-isopentyl-9-methyl-2-oxo-1,5-dioxonan-3-yl)carbamate]: the melting point is 112 to 115 °C.

On to `COc1ccnc(C(=O)N[C@H]2COC[C@H](OC(=O)C3CC3)[C@@H](CCC(C)C)[C@H](C)OC2=O)c1OC(C)=O` [Compound 68, (3S,7R,8S,9S)-3-(3-acetoxy-4-methoxypicolinamido)-8-isopentyl-9-methyl-2-oxo-1,5-dioxonan-7-yl cyclopropanecarboxylate], for which the pest or weed control at 121.5 g/ha was above 70% in the series with Puccinia triticina (24 h, 1DP (1 Day Protectant)); above 70% in the series with Puccinia triticina (72 h, 3DC (3 Day Curative)); below 70% with Septoria tritici (24 h, 1DP (1 Day Protectant)); above 70% with Septoria tritici (72 h, 3DC (3 Day Curative)).

With `COc1ccnc(C(=O)N[C@H]2COC[C@H](OCC3CC3)[C@@H](Cc3ccc(F)cc3)[C@H](C)OC2=O)c1OCOC(C)=O` [Compound 71], the pest or weed control at 121.5 g/ha is above 70% in the series on Puccinia triticina (24 h, 1DP (1 Day Protectant)); above 70% in the series with Puccinia triticina (72 h, 3DC (3 Day Curative)); above 70% in the series on Septoria tritici (24 h, 1DP (1 Day Protectant)); above 70% in the series with Septoria tritici (72 h, 3DC (3 Day Curative)).

For `COc1ccnc(C(=O)N[C@H]2COC[C@H](OCOCc3ccccc3)[C@@H](Cc3ccccc3)[C@H](C)OC2=O)c1O` [Compound 72, N-((3S,7R,8S,9S)-8-benzyl-7-((benzyloxy)methoxy)-9-methyl-2-oxo-1,5-dioxonan-3-yl)-3-hydroxy-4-methoxypicolinamide], the pest or weed control at 100 ppm with Puccinia triticina (24 h, 1DP (1 Day Protectant)) was above 70%; in the series with Puccinia triticina (72 h, 3DC (3 Day Curative)), below 70%; in the series with Septoria tritici (24 h, 1DP (1 Day Protectant)), below 70%; in the series on Septoria tritici (72 h, 3DC (3 Day Curative)), below 70%.

As to `COCCC(=O)Oc1c(OC)ccnc1C(=O)N[C@H]1COC[C@H](Oc2ccccc2)[C@@H](Cc2ccccc2)[C@H](C)OC1=O` [Compound 73], the pest or weed control at 121.5 g/ha is above 70% with Puccinia triticina (24 h, 1DP (1 Day Protectant)); above 70% in the series on Puccinia triticina (72 h, 3DC (3 Day Curative)); above 70% with Septoria tritici (24 h, 1DP (1 Day Protectant)); above 70% with Septoria tritici (72 h, 3DC (3 Day Curative)).

On to `COc1ccnc(C(=O)N[C@H]2COC[C@H](Oc3ccccc3)[C@@H](Cc3ccccc3)[C@H](C)OC2=O)c1O` [Compound 77], for which the melting point lay in the range of 49 to 54 °C.

For `COc1ccnc(C(=O)N[C@H]2COC[C@H](OCC3CC3)[C@@H](Cc3ccccc3)[C@H](C)OC2=O)c1OCOC(C)=O` [Compound 80], the pest or weed control at 100 ppm in the series with Puccinia triticina (24 h, 1DP (1 Day Protectant)) is above 70%; in the series with Puccinia triticina (72 h, 3DC (3 Day Curative)), above 70%; in the series with Septoria tritici (24 h, 1DP (1 Day Protectant)) it was above 70%; in the series with Septoria tritici (72 h, 3DC (3 Day Curative)), above 70%. For the same compound, the pest or weed control at 121.5 g/ha in the series with Puccinia triticina (24 h, 1DP (1 Day Protectant)) is above 70%; with Puccinia triticina (72 h, 3DC (3 Day Curative)), above 70%; in the series with Septoria tritici (24 h, 1DP (1 Day Protectant)), above 70%; with Septoria tritici (72 h, 3DC (3 Day Curative)) it was above 70%.

For the compound `COc1ccnc(C(=O)N[C@H]2COC[C@H](Oc3ccccc3)[C@@H](Cc3ccccc3)[C@H](C)OC2=O)c1OC(C)=O` [Compound 81], the pest or weed control at 121.5 g/ha is above 70% with Puccinia triticina (24 h, 1DP (1 Day Protectant)); above 70% in the series with Puccinia triticina (72 h, 3DC (3 Day Curative)); above 70% in the series with Septoria tritici (24 h, 1DP (1 Day Protectant)); above 70% in the series on Septoria tritici (72 h, 3DC (3 Day Curative)).

`COc1ccnc(C(=O)N[C@H]2COC[C@H](OCC3CC3)[C@@H](Cc3ccccc3)[C@H](C)OC2=O)c1O` [Compound 83]: the pest or weed control at 100 ppm was above 70% in the series on Puccinia triticina (24 h, 1DP (1 Day Protectant)); above 70% with Puccinia triticina (72 h, 3DC (3 Day Curative)); above 70% in the series on Septoria tritici (24 h, 1DP (1 Day Protectant)); above 70% in the series with Septoria tritici (72 h, 3DC (3 Day Curative)).

`COc1ccnc(C(=O)N[C@H]2COC[C@H](Oc3ccccc3)[C@@H](Cc3ccccc3)[C@H](C)OC2=O)c1OCOC(C)=O` [Compound 84]: the pest or weed control at 121.5 g/ha in the series with Puccinia triticina (24 h, 1DP (1 Day Protectant)) is above 70%; in the series on Puccinia triticina (72 h, 3DC (3 Day Curative)) it was above 70%; in the series on Septoria tritici (24 h, 1DP (1 Day Protectant)) it was above 70%; in the series with Septoria tritici (72 h, 3DC (3 Day Curative)) it was above 70%.

Take `COc1ccnc(C(=O)N[C@H]2COC[C@H](OCC(C)C)[C@@H](Cc3ccccc3)[C@H](C)OC2=O)c1OCOC(C)=O` [Compound 85]: the pest or weed control at 100 ppm in the series on Puccinia triticina (24 h, 1DP (1 Day Protectant)) is above 70%; in the series with Puccinia triticina (72 h, 3DC (3 Day Curative)), above 70%; with Septoria tritici (24 h, 1DP (1 Day Protectant)), below 70%; in the series with Septoria tritici (72 h, 3DC (3 Day Curative)), above 70%. Further, the pest or weed control at 121.5 g/ha is above 70% in the series on Puccinia triticina (24 h, 1DP (1 Day Protectant)); above 70% in the series with Puccinia triticina (72 h, 3DC (3 Day Curative)); above 70% with Septoria tritici (24 h, 1DP (1 Day Protectant)); above 70% in the series with Septoria tritici (72 h, 3DC (3 Day Curative)).

The values are drawn from patent publication US9549556B2, “Macrocyclic picolinamides as fungicides” (DOW AGROSCIENCES LLC, priority 2013, dated 2017).
